Data taken from PMC12389269, “Heteroaryl-Capped Hydroxamic Acid Derivatives with Varied Linkers: Synthesis and Anticancer Evaluation with Various Apoptosis Analyses in Breast Cancer Cells, Including Docking, Simulation, DFT, and ADMET Studies” (Pharmaceuticals, 2025).

Columns and labels:
[1] = test system: A-549 (Human Lung Cancer Cell Line); test: SRB antiproliferative assay, A-549; format: cell-based; settings: Homo sapiens, A549, A-549, 48 h, read-out: GI50
Experimental: (§1) Following an extensive review of the literature, we selected human breast cancer (MCF-7, MDA-MB-231) and lung cancer (A549) cell lines to evaluate the anticancer potential of the synthesized compounds, and some compounds with good anti-proliferation activity were again tested to evaluate their cytotoxic potential on A-549, MCF-7, and MDA-MB-231. The same were also tested on one non-cancerous/normal (HEK-293) cell line. All the cell lines for the required screening were developed in a suitable medium comprising 10% FBS and 2mM L-glutamine. Cancerous and non-cancerous/normal cell lines were selected for the cell proliferation and cytotoxicity assay and maintained with 5% CO2 at 37 °C in a CO2 incubator with 100% relative humidity for one complete day before the addition of experimental drugs.
Antiproliferative activity through an SRB assay was performed for all the synthesized compounds on A-549 and MCF-7 cell lines. Around 5000 cells/well were quarantined into a 96-well microtiter plate in 100 μL. The synthesized compounds were solubilized in DMSO and diluted to different concentrations before use. The final-drug-concentration aliquots were poured into microtiter wells, and the plates were incubated for 48 h in regular conditions. After adding the final drug concentration, the cells were allowed to set in place and incubated for 60 min. A total of 50 µL of SRB solution (0.4% w/v) in 1% CH3COOH was poured into each well. The plates were then incubated for 20 min at RT. During subsequent staining, the unbounded dye was removed, and the plate reader recorded the eluted bound stain at 540 nm with a 690 nm reference wavelength. The assay was performed precisely using the appropriate reagents and reaction situation, as per the reported procedure. ADR was selected as the reference drug.

[2] = target: T1, HDAC1 (Homo sapiens, UniProt Q13547); test: HDAC inhibition assay (color de lys ELISA kit), HDAC1; format: biochemical; settings: HeLa nuclear extract as source of HDAC activity
T1 construct: The HeLa nuclear extract was used as a source of HDAC activity; host or cells: HeLa (nuclear extract / cells)
Experimental: SAHA served as the assay’s positive control. The HeLa nuclear extract was used as a source of HDAC activity. The trypsinized HeLa cells were tallied, put into 96-well microtiter plates, and nurtured. Samples and the standard were placed in wells at a concentration of 100 µL. The culture environment was maintained as per the procedure. 3,3′,5,5′-tetramethylbenzidine (TMB) was included for visualization. Finally, 50 µL of halt solution was smeared. The samples and different SAHA concentrations (0.01, 0.1, 1, 10 μM) were introduced to the appropriate well and left for 72 h. BioTek Epoch (Winooski, VT, USA) microplate reader was used to quantify optical density at 450 nm. The Graph Pad Prism 5 helped to determine the IC50 values.

[3] = test system: A549 cells; test: MTT cytotoxicity assay, A549; format: cell-based; settings: Homo sapiens, A549, 24 h
Experimental: as §1
MTT, a well-known colorimetric cytotoxic assay was performed to validate the cytotoxicity of the selected compounds—VI(b), VI(c), VI(e), and VI(i)—against three different human tumor cell lines [MCF-7, MDA-MB-231, A549] and a normal cell line [HEK293]. The seeding of 1 × 10^4 cells onto each well was executed in a 96-well plate in triplicate, and to keep the cells viable, overnight incubation was undertaken at 37 °C with 5% CO2 in a CO2 incubator. […] The microplate reader was set at 570 nm to measure the absorbance of each well.

T1 sequence (Q13547 whole entry): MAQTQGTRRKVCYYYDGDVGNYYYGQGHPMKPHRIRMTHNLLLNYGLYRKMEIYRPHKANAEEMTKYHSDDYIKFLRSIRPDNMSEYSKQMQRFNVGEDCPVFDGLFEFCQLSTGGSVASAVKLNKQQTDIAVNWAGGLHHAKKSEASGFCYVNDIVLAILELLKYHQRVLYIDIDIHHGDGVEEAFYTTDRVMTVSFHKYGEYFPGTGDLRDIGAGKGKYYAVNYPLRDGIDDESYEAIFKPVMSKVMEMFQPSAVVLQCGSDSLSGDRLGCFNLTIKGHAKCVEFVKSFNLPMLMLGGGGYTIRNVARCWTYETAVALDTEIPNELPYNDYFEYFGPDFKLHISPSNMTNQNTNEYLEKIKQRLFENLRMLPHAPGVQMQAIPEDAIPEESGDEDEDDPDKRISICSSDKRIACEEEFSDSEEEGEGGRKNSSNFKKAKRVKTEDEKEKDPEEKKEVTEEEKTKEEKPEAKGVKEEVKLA

GI50 [1]: < 10 µg/mL | IC50 [2]: 10.1 µM
SMILES: COc1ccc(-c2cnn(CCCCCC(=O)NO)n2)cc1 [VI(i), N-Hydroxy-6-(4-(4-methoxyphenyl)-2H-1,2,3-triazol-2-yl)hexanamide]
IC50 [3]: > 100 µg/mL
